The text below walks through data of ChEMBL document CHEMBL5331114, “Discovery of Pyxinol Amide Derivatives Bearing Amino Acid Residues as Nonsubstrate Allosteric Inhibitors of P-Glycoprotein-Mediated Multidrug Resistance” (J Med Chem, 2023).

Data set [1] in a line: Cytotoxicity against human KBV Cells assessed as cell survival rate at 10 uM incubated for 72 hrs by MTT assay. Format: functional. The settings on record: read-out: Survival. Background: Tetrazolium assays rely on reduction of a dye to a coloured formazan, in cell work by metabolically active cells.
Data set [2] is described as follows: Reversal of multidrug resistance in human KBV Cells assessed as increase in PTX-induced cytotoxicity by measuring cell survival rate at 10 uM incubated for 72 hrs in presence of paclitaxel by MTT assay relative to control. In kind it is functional. The conditions noted are these: read-out: Survival.
Data set [3] is described as follows: Reversal of multidrug resistance in human KBV Cells assessed as increase in PTX-induced cytotoxicity by measuring cell survival rate at 5 uM incubated for 72 hrs in presence of paclitaxel by MTT assay relative to control. Format: functional. The conditions noted are these: read-out: Survival.
Data set [4] can be described thus: Reversal of multidrug resistance in human KBV Cells assessed as reversal fold of paclitaxel IC50 at 5 uM incubated for 72 hrs in presence of paclitaxel by MTT assay. Format: functional.
Data set [5] can be described thus: Reversal of multidrug resistance in human KBV Cells assessed as reversal fold of paclitaxel IC50 at 10 uM incubated for 72 hrs in presence of paclitaxel by MTT assay. In kind it is functional.
Data set [6] in a line: Induction of cell cycle arrest in human KBV cells assessed as accumulation of cells at Sub-G1 phase at 10 uM incubated for 24 hrs by flow cytometry analysis (reference value: 1.24 +/- 0.14%). In kind it is functional. In general terms: In flow cytometry, cells or beads pass a laser one at a time.
The nature of data set [7]: Induction of cell cycle arrest in human KBV cells assessed as accumulation of cells at G1-G0 phase at 10 uM incubated for 24 hrs by flow cytometry analysis (reference value: 62.34 +/- 0.24%). In kind it is functional.
A short description of data set [8]: Induction of cell cycle arrest in human KBV cells assessed as accumulation of cells at S phase at 10 uM incubated for 24 hrs by flow cytometry analysis (reference value: 12.42 +/- 0.41%). Format: functional.
The nature of data set [9]: Induction of cell cycle arrest in human KBV cells assessed as accumulation of cells at G2-M phase at 10 uM incubated for 24 hrs by flow cytometry analysis (reference value: 24.94 +/- 0.21%). In kind it is functional.
A short description of data set [10]: Induction of Ptx-mediated cell cycle arrest in human KBV cells assessed as accumulation of cells at Sub-G1 phase at 10 uM incubated for 24 hrs in presence of paclitaxel by flow cytometry analysis (reference value: 1.21 +/- 0.3%). In kind it is functional.
The nature of data set [11]: Induction of Ptx-mediated cell cycle arrest in human KBV cells assessed as accumulation of cells at G1-G0 phase at 10 uM incubated for 24 hrs in presence of paclitaxel by flow cytometry analysis (Rvb =57.76 +/- 0.78%). Format: functional.
A short description of data set [12]: Induction of Ptx-mediated cell cycle arrest in human KBV cells assessed as accumulation of cells at S phase at 10 uM incubated for 24 hrs in presence of paclitaxel by flow cytometry analysis (Rvb =16.63 +/- 0.4%). Format: functional.
A short description of data set [13]: Induction of Ptx-mediated cell cycle arrest in human KBV cells assessed as accumulation of cells at G2-M phase at 10 uM incubated for 24 hrs in presence of paclitaxel by flow cytometry analysis (Rvb =25.34 +/- 0.92%). Format: functional.
A short description of data set [14]: Drug accumulation in human KB cells at 10 uM incubated for 4 hrs by LC-MS/MS analysis. In kind it is ADME, cell-based.
The nature of data set [15]: Drug accumulation in human KBV cells at 10 uM incubated for 4 hrs by LC-MS/MS analysis. In kind it is ADME, cell-based.

Take `CC(C)(C)OC(=O)N[C@@H](Cc1ccccc1)C(=O)N[C@H]1CC[C@]2(C)[C@H]3C[C@@H](O)[C@@H]4[C@@H]([C@]5(C)CC[C@@H](C(C)(C)O)O5)CC[C@@]4(C)[C@]3(C)CC[C@H]2C1(C)C`: the viability at 10 µM was 102% in [1] and 24% in data set [2]. For the same compound, the viability at 5 µM in data set [3] is 31%. The “fold change (FC)” value in data set [4] was determined as 21; in [5] it was 49.
Consider `CC(C)(O)[C@H]1CC[C@@](C)([C@H]2CC[C@]3(C)[C@@H]2[C@H](O)C[C@@H]2[C@@]4(C)CC[C@H](NC(=O)[C@@H](N)Cc5ccccc5)C(C)(C)[C@@H]4CC[C@]23C)O1`, for which the viability at 10 µM amounted to 85% in [1] and 29% in [2]. In data set [3], the viability at 5 µM came out at 33%. For the same compound, the entries for the “fold change (FC)” value in data set [4] and in data set [5] were 56 and 321, respectively.
Consider `COc1ccc(CCN(C)CCCC(C#N)(c2ccc(OC)c(OC)c2)C(C)C)cc1OC` (stereo not drawn), for which, in data set [2], the viability at 10 µM is 41%. Besides, the Activity in data set [6] worked out at 1.07%; in [7], 58.36%; in data set [8], 14.59%; in data set [9], 26.78%; in data set [10] it was 8.56%; in [11], 39.76%. Moreover, the Activity in data set [12] came to 21.71%; in data set [13], 37.67%.
Regarding `CC(C)(C)OC(=O)N[C@@H](Cc1ccc(OC(C)(C)C)cc1)C(=O)N[C@H]1CC[C@]2(C)[C@H]3C[C@@H](O)[C@@H]4[C@@H]([C@]5(C)CC[C@@H](C(C)(C)O)O5)CC[C@@]4(C)[C@]3(C)CC[C@H]2C1(C)C`, the viability at 10 µM in data set [1] came to 85%; in [2], 19%. Further, the viability at 5 µM in [3] was 30%. In addition, the “fold change (FC)” value was 35 in data set [4] and 209 in data set [5]. Also, the Drug uptake result in data set [14] and in data set [15] was “Not Active” in each case.
With `CC(C)(C)OC(=O)NCCCCCC(=O)N[C@H]1CC[C@]2(C)[C@H]3C[C@@H](O)[C@@H]4C([C@]5(C)CC[C@H](C(C)(C)O)O5)CC[C@@]4(C)[C@]3(C)CC[C@H]2C1(C)C` (stereo partly drawn), the viability at 10 µM in [1] was determined as 98%; in data set [2] it was 36%. The viability at 5 µM in data set [3] came to 44%. Further, the Drug uptake entry in data set [14] and in [15] was “Not Active” throughout.
As to `CC(C)(C)OC(=O)C[C@H](NC(=O)OC(C)(C)C)C(=O)N[C@H]1CC[C@]2(C)[C@H]3C[C@@H](O)[C@@H]4[C@@H]([C@]5(C)CC[C@@H](C(C)(C)O)O5)CC[C@@]4(C)[C@]3(C)CC[C@H]2C1(C)C`, the figures for the viability at 10 µM in [1] and in [2] were 94% and 28%, respectively. Moreover, in [3], the viability at 5 µM is 33%. Also, the “fold change (FC)” value in [4] was 61; in data set [5] it was 130. Further, the Drug uptake entry in data set [14] and in [15] was “Not Active” throughout.
